Here are results for 24 molecules from patent publication US9718788B2, “Heteroaryl compounds useful as inhibitors of E1 activating enzymes” (MILLENNIUM PHARMACEUTICALS, INC., priority 2006, dated 2017).

Each structure is given as a SMILES string. A value given as a limit tells only on which side of the number the result lay.

The test concerns the target T1, recombinant human NAE enzyme (Homo sapiens, UniProt Q8TBC4).
T1 construct: His (N); made in house; host or cells: Sf9 insect cells (baculovirus, Bac-to-Bac)
T1 sequence (Q8TBC4 1-463): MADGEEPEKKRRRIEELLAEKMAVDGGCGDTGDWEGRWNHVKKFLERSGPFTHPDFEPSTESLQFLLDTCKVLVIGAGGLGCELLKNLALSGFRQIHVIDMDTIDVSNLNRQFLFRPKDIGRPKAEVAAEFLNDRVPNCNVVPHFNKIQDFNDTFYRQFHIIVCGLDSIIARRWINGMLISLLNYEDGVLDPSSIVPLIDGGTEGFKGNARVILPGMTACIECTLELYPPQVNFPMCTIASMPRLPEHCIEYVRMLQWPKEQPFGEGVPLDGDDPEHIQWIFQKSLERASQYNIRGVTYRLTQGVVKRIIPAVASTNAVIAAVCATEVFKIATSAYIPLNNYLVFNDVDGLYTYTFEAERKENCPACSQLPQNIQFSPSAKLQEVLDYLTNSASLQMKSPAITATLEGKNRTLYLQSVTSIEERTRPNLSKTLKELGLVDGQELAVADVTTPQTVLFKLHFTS
T1 sequence (Q13564 1-534 partner): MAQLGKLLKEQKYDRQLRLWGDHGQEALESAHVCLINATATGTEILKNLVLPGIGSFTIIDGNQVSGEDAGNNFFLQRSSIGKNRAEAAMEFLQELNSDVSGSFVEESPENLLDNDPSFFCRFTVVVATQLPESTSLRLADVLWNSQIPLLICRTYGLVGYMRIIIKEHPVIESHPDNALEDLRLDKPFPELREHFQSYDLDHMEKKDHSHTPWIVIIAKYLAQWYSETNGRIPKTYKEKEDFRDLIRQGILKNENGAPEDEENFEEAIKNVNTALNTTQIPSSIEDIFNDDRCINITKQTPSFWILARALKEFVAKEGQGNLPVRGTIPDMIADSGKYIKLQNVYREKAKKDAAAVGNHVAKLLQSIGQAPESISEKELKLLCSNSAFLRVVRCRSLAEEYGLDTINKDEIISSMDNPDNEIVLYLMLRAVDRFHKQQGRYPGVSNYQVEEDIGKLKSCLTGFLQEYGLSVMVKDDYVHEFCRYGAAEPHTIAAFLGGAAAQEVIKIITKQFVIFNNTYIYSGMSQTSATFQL
The test is described as follows: Nedd8-Activating Enzyme (NAE) HTRF Assay. The class given is biochemical. Particulars: 20 μM ATP. In a few lines:
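Recombinant human NAE (NAEα/His-NAEβ from Sf9 cells) at 0.20 nM with 20 μM ATP, 0.01 μM Ubc12-GST and 0.075 μM Nedd8-Flag in HEPES pH 7.5, 105 min at 24° C. EDTA stop; Eu-anti-FLAG/APC-anti-GST HTRF read after 1 h.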
For orientation: In TR-FRET formats the signal depends on donor and acceptor labels being close together.

A word on the IC50: it is the concentration that gives 50% inhibition. On to `COc1cccc(-c2nc3c(N[C@@H]4C[C@@H](COS(N)(=O)=O)[C@@H](O)C4)ncnc3[nH]2)c1OC` [Compound I-67, ((1S,2S,4R)-4-{[8-(2,3-dimethoxyphenyl)-9H-purin-6-yl]amino}-2-hydroxycyclopentyl)methyl sulfamate], for which the IC50 (bound given in nM) was ≤ 500 nM.

Turning to `NS(=O)(=O)OC[C@@H]1C[C@@H](Nc2ncnc3[nH]c(-c4ccccc4C(F)(F)F)nc23)C[C@@H]1O` [Compound I-122, [(1S,2S,4R)-2-hydroxy-4-({8-[2-(trifluoromethyl)phenyl]-9H-purin-6-yl}amino)cyclopentyl]methyl sulfamate], the half-maximal inhibitory concentration (IC50) (bound given in nM) is ≤ 500 nM.

As to `NS(=O)(=O)OC[C@@H]1C[C@@H](Oc2ncnc3nc(-c4c[nH]c5ccccc45)[nH]c23)C[C@@H]1O` [Compound I-140, ((1S,2S,4R)-2-hydroxy-4-{[8-(1H-indol-3-yl)-7H-purin-6-yl]oxy}cyclopentyl)methyl sulfamate], the IC50 (bound given in nM) is ≤ 500 nM.

On to `NS(=O)(=O)OC[C@@H]1C[C@@H](Oc2cc(-c3ccccc3)ncn2)C[C@@H]1O` [Compound I-114, {(1S,2S,4R)-2-hydroxy-4-[(6-phenylpyrimidin-4-yl)oxy]cyclopentyl}methyl sulfamate], for which the IC50 is > 500 nM (bound given in nM) and < 10000 nM (bound given in μM).

As for `CC1(C)C[C@H](Nc2cc(N[C@@H]3C[C@@H](COS(N)(=O)=O)[C@@H](O)C3)ncn2)c2ccccc21` [Compound I-65, {(1S,2S,4R)-4-[(6-{[(1S)-3,3-dimethyl-2,3-dihydro-1H-inden-1-yl]amino}-pyrimidin-4-yl)amino]-2-hydroxycyclopentyl}methyl sulfamate], the IC50 (bound given in nM) was ≤ 500 nM.

`CO[C@H]1Cc2ccccc2[C@H]1Nc1ncnc(O[C@@H]2C[C@@H](COS(N)(=O)=O)[C@@H](O)C2)c1F` [Compound I-83, {(1S,2S,4R)-4-[(5-fluoro-6-{[(1R,2S)-2-methoxy-2,3-dihydro-1H-inden-1-yl]amino}pyrimidin-4-yl)oxy]-2-hydroxycyclopentyl}methyl sulfamate]: the IC50 (bound given in nM) is ≤ 500 nM.

On to `CC1(C)C[C@H](Nc2cc(O[C@@H]3C[C@@H](COS(N)(=O)=O)[C@@H](O)C3)ccn2)c2ccc(Cl)cc21` [Compound I-35, {(1S,2S,4R)-4-[(2-{[(1S)-5-chloro-3,3-dimethyl-2,3-dihydro-1H-inden-1-yl]-amino}-pyridin-4-yl)oxy]-2-hydroxycyclopentyl}methyl sulfamate], for which the IC50 is, setting by setting: (bound given in nM) > 500 nM; (bound given in μM) < 10000 nM.

With `Cn1c(-c2ccccc2)nc2ncnc(N[C@@H]3C[C@@H](COS(N)(=O)=O)[C@@H](O)C3)c21` [Compound I-36, {(1S,2S,4R)-2-hydroxy-4-[(7-methyl-8-phenyl-7H-purin-6-yl)-amino]cyclopentyl}methyl sulfamate], the IC50 runs as follows: (bound given in nM) > 500 nM; (bound given in μM) < 10000 nM.

As for `CO[C@@H]1c2ccccc2C[C@@H]1Oc1cc(O[C@@H]2C[C@@H](COS(N)(=O)=O)[C@@H](O)C2)ncn1` [Compound I-79, {(1S,2S,4R)-2-hydroxy-4-[(6-{[(1R,2S)-1-methoxy-2,3-dihydro-1H-inden-2-yl]oxy}-pyrimidin-4-yl)oxy]cyclopentyl}methyl sulfamate], the IC50 runs as follows: (bound given in nM) > 500 nM; (bound given in μM) < 10000 nM.

Take `CN(Cc1ccccc1)c1cc(N[C@@H]2C[C@H](COS(N)(=O)=O)[C@@H](O)[C@H]2O)ncn1` [Compound I-22, [(1R,2R,3S,4R)-4-({6-[benzyl(methyl)amino]pyrimidin-4-yl}amino)-2,3-dihydroxycyclopentyl]methyl sulfamate]: for the setting “bound given in μM”, the IC50 is > 10000 nM.

Regarding `NS(=O)(=O)OC[C@@H]1C[C@@H](Nc2cc(N[C@H]3CCc4ccccc43)ncn2)C[C@@H]1O` [Compound I-5, [(1S,2S,4R)-4-({6-[(1S)-2,3-dihydro-1H-inden-1-ylamino]pyrimidin-4-yl}amino)-2-hydroxycyclopentyl]methyl sulfamate], the IC50 (bound given in nM) was ≤ 500 nM.

On to `Cc1nc(NCc2ccccc2)cc(N[C@@H]2C[C@H](COS(N)(=O)=O)[C@@H](O)[C@H]2O)n1` [Compound I-30, ((1R,2R,3S,4R)-4-{[6-(benzylamino)-2-methylpyrimidin-4-yl]amino}-2,3-dihydroxycyclopentyl)methyl sulfamate], for which the IC50 (bound given in μM) is > 10000 nM.

With `NS(=O)(=O)OC[C@H]1C[C@@H](NC(=O)c2ccccn2)[C@H](O)[C@@H]1O` [Compound I-23, {(1R,2R,3S,4R)-2,3-dihydroxy-4-[(pyridin-2-ylcarbonyl)amino]cyclopentyl}-methyl sulfamate], the concentration for half-maximal inhibition (IC50) (bound given in μM) was > 10000 nM.

Take `NS(=O)(=O)OC[C@@H]1C[C@@H](Cc2cc(N[C@H]3CCc4ccccc43)ncn2)C[C@@H]1O` [Compound I-33, [(1S,2S,4S)-4-({6-[(1S)-2,3-dihydro-1H-inden-1-ylamino]pyrimidin-4-yl}methyl)-2-hydroxycyclopentyl]methyl sulfamate]: the IC50 is > 500 nM (bound given in nM) and < 10000 nM (bound given in μM).

Turning to `CN(C)c1ccccc1-c1nc2c(N[C@@H]3C[C@@H](COS(N)(=O)=O)[C@@H](O)C3)ncnc2[nH]1` [Compound I-137, [(1S,2S,4R)-4-({8-[2-(dimethylamino)phenyl]-9H-purin-6-yl}amino)-2-hydroxycyclopentyl]methyl sulfamate], the IC50 (bound given in nM) was ≤ 500 nM.

Take `NS(=O)(=O)OC[C@@H]1C[C@@H](Oc2cc(NCc3cccc4ccccc34)ncn2)C[C@@H]1O` [Compound I-42, [(1S,2S,4R)-2-hydroxy-4-({6-[(1-naphthylmethyl)amino]pyrimidin-4-yl}-oxy)cyclopentyl]methyl sulfamate]: the IC50 (bound given in nM) is ≤ 500 nM.

On to `NS(=O)(=O)OC[C@@H]1C[C@@H](Nc2cc(CCc3ccccc3)ncn2)C[C@@H]1O` [Compound I-81, ((1S,2S,4R)-2-hydroxy-4-{[6-(2-phenylethyl)pyrimidin-4-yl]amino}cyclopentyl)methyl sulfamate], for which the IC50 runs as follows: (bound given in nM) > 500 nM; (bound given in μM) < 10000 nM.

In the case of `NS(=O)(=O)OC[C@H]1C[C@@H](Nc2cc(N[C@H]3CCC[C@@H]3OCc3ccccc3)ncn2)[C@H](O)[C@@H]1O` [Compound I-92, {(1R,2R,3S,4R)-4-[(6-{[(1S,2S)-2-(benzyloxy)cyclopentyl]amino}pyrimidin-4-yl)amino]-2,3-dihydroxycyclopentyl}methyl sulfamate], the half-maximal inhibitory concentration (IC50) is > 500 nM (bound given in nM) and < 10000 nM (bound given in μM).

For `NS(=O)(=O)OC[C@@H]1C[C@@H](Oc2ncnc3c2ncn3Cc2ccccc2)C[C@@H]1O` [Compound I-80, {(1S,2S,4R)-4-[(9-benzyl-9H-purin-6-yl)oxy]-2-hydroxycyclopentyl}methyl sulfamate], the 50% inhibitory concentration (IC50) by setting is: (bound given in nM) > 500 nM; (bound given in μM) < 10000 nM.

Consider `Cc1cccc(Sc2nc3ncnc(O[C@@H]4C[C@@H](COS(N)(=O)=O)[C@@H](O)C4)c3[nH]2)c1` [Compound I-136, [(1S,2S,4R)-2-hydroxy-4-({8-[(3-methylphenyl)sulfanyl]-7H-purin-6-yl}oxy)cyclopentyl]methyl sulfamate], for which the IC50 (bound given in nM) is ≤ 500 nM.

Turning to `CC1(C)C[C@H](Nc2ncnc(N[C@@H]3C[C@@H](COS(N)(=O)=O)[C@@H](O)C3)n2)c2ccccc21` [Compound I-134, {(1S,2S,4R)-4-[(4-{[(1S)-3,3-dimethyl-2,3-dihydro-1H-inden-1-yl]amino}-1,3,5-triazin-2-yl)amino]-2-hydroxycyclopentyl}methyl sulfamate], the IC50 (bound given in nM) is ≤ 500 nM.

`CC(C)(C)c1nc2c(N[C@@H]3C[C@@H](COS(N)(=O)=O)[C@@H](O)C3)ncnc2[nH]1` [Compound I-131, {(1S,2S,4R)-4-[(8-tert-butyl-9H-purin-6-yl)amino]-2-hydroxycyclopentyl}methyl sulfamate]: the 50% inhibitory concentration (IC50) (bound given in nM) is ≤ 500 nM.

On to `NS(=O)(=O)OC[C@H]1C[C@@H](NC(=O)c2cccnc2)[C@H](O)[C@@H]1O` [Compound I-16, {(1R,2R,3S,4R)-2,3-dihydroxy-4-[(pyridin-3-ylcarbonyl)amino]cyclopentyl}-methyl sulfamate], for which the IC50 (bound given in nM) is > 500 nM and the IC50 (bound given in μM) is < 10000 nM.

On to `NS(=O)(=O)OC[C@@H]1C[C@@H](Nc2ncnc3[nH]c(-c4cccc5ccccc45)cc23)C[C@@H]1O` [Compound I-74, ((1S,2S,4R)-2-hydroxy-4-{[6-(1-naphthyl)-7H-pyrrolo[2,3-d]pyrimidin-4-yl]amino}cyclopentyl)methyl sulfamate], for which the IC50 (bound given in nM) was ≤ 500 nM.
